Measurements: patent US20140336136A1, “Carboxylated Stilbenes For Activating AMPK And Sirtuins” (Rahn AG, priority 2013, published 2014)
Marks after values point to notes of the source that are not given here.

Experiments:
human sirtuin-1 (Sirt1) = target: T1, human sirtuin-1 (Sirt1) (Homo sapiens, UniProt Q96EB6); experiment: SIRT1 Fluorimetric Drug Discovery Kit, Sirt1 activation; format: biochemical; details: for Fold increase in sirtl activity versus control: 10 μM, control = trans-resveratrol
T1 construct: purchased BioMol, Hamburg, Germany
T1 sequence (Q96EB6 1-747): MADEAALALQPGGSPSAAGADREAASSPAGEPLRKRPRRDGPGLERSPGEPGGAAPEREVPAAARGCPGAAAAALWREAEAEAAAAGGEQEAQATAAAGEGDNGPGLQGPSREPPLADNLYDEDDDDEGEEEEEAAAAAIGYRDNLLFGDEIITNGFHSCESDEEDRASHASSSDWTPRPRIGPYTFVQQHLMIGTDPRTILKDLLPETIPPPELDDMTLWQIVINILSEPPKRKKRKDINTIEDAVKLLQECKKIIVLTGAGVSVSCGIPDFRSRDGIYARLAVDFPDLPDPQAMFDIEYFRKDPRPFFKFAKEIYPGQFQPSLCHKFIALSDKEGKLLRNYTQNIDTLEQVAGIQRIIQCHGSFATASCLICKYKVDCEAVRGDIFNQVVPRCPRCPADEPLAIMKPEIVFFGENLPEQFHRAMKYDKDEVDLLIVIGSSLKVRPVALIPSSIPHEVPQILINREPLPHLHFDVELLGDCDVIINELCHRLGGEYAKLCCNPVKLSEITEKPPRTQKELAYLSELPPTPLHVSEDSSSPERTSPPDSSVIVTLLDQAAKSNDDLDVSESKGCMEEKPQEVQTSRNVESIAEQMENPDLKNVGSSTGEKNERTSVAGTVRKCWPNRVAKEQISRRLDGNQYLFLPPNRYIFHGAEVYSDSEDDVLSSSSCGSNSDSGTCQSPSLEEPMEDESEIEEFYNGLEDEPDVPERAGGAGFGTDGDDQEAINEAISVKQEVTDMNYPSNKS
Procedure: Compounds were tested for Sirt1 activation using the SIRT1 Fluorimetric Drug Discovery Kit (BioMol, Hamburg, Germany), Testing was carried out in dubplicate following the manufacturer's instructions. Assay medium: 50 mM Tris-HCl pH 8.0, 137 mM NaCl, 2.7 mM KCl, 1 mM MgCl2, 1 mg/ml bovine serum albumin (BSA). Stock solutions of the test compounds (10 mM in DMSO) were used, yielding a final concentration of 10 μM in the assay plate. Readout was obtained by measuring the fluorescence in a microtiter plate reader (excitation: 380 nm; detection: 440 nm).
For this purpose, the test item stock solutions were diluted to yield concentrations of 0.3, 1, 3, 10 and 30 μM, respectively, in the assay, which was performed as described above. The compound of structure (I-1) was selected for this experiment.
Quantification using the GraphPad Prism 5.0 software (GraphPad Software, Inc., LaJolla, Calif., USA) led to the following EC300 values (i.e. the concentration that gave 3-times the basal response of the enzyme=activation by a factor of three):
The selectivity of the agonistic effect of the compound of formula (I-1) on different sirtuin isoforms was investigated. For this purpose, in vitro testing was performed as described in Example 1 using the respective SIRT1 Fluorimetric Drug Discovery Kit, SIRT2 Fluorimetric Drug Discovery Kit, and SIRT3 Fluorimetric Drug Discovery Kit (each from BioMol, Hamburg, Germany). […] The dose-response effect is slightly lesser on Sirt3.

Sirt2 = target: T2, Sirt2 (Homo sapiens, UniProt Q8IXJ6); experiment: SIRT2 Fluorimetric Drug Discovery Kit, Sirt2 activation; format: biochemical; details: Example 2, Table 6
T2 construct: purchased BioMol, Hamburg, Germany
T2 sequence (Q8IXJ6 1-389): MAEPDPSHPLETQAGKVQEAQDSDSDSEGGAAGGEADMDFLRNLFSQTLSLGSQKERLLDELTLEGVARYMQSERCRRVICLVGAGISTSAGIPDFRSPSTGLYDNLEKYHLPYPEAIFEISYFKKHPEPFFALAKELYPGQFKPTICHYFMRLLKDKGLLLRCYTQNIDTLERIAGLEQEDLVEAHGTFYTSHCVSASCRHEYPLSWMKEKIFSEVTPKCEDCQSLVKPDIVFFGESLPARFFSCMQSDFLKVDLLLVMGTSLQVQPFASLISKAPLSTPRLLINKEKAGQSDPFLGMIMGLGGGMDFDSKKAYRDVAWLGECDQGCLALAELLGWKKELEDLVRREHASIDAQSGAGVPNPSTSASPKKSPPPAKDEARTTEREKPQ

Sirt3 = target: T3, Sirt3 (Homo sapiens, UniProt Q9NTG7); experiment: SIRT3 Fluorimetric Drug Discovery Kit, Sirt3 activation; format: biochemical; details: Example 2, Table 6
T3 construct: purchased BioMol, Hamburg, Germany
T3 sequence (Q9NTG7 1-399): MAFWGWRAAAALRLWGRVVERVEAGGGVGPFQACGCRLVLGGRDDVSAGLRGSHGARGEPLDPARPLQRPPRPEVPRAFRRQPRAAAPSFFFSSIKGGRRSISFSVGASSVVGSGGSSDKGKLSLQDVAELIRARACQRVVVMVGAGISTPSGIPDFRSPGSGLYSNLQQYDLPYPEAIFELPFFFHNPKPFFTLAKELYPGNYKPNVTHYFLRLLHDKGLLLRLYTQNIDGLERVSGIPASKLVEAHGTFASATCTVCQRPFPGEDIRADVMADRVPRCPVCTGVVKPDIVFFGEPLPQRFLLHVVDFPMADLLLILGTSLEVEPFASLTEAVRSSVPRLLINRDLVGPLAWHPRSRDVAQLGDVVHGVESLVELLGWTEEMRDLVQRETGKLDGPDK

[1] = test system: 5′-AMP-activated protein kinase (AMPK); experiment: Western blot analysis of AMPK phosphorylation in NHEK; format: cell-based, human; details: for AMPK phosphorylation [% Control] / Ratio P-AMPK/GAPDH / P-AMPK: 1000 μM; for P-AMPK: 48 h
[2] = test system: normal human epidermal keratinocytes (NHEK); experiment: MTT reduction cytotoxicity assay in NHEK; format: cell-based; details: for viability: NHEK
Procedure: Culture conditions: 37° C., 5% CO2. Culture medium: Keratinocyte-SFM (serum-free medium) containing human recombinant epidermal growth factor (EGF 1-53) 0.25 ng/mL and bovine pituitary extract 25 μg/mL (Gibco; Cat. No. 17005-075), supplemented with gentamycin 25 μg/mL. Assay medium: Keratinocyte-SFM (Gibco; Cat. No. 10744-019), supplemented with gentamycin 25 μg/mL.
NHEK were seeded in 24-well plates (30.000 cells/well) and cultured in culture medium for 24 h and then in assay medium for another 24 h. Medium was then removed and replaced by assay medium containing the respective test compound or reference in defined concentrations.
Cytotoxicity was determined using the 3-(4,5-dimethylthiazol-2-yl)-2,5-diphenyltetrazoliumbromid (MTT) reduction assay (sse T. Mosmann (1983) J. Immunol. Methods. 65, pp. 55-63).

[3] = test system: normal human dermal fibroblasts (NHDF); experiment: Resazurin based cytotoxicity assay in NHDF; format: cell-based; details: 24 h and 48 h; 0.03 μM to 200 μM
Procedure: The effect of compound (I-1) on mitochondria biosynthesis was investigated in normal human dermal fibroblasts (NHDF). NHDF were obtained from PromoCell (Lot No. 006151; donor; from eyelid skin) and cultivated in Fibroblast Growth Medium (PromoCell; Cat. No. C-023020) supplemented with Supplement Mix (PromoCell; Cat. No. C-039215) at 37° C./5% CO2. NHDF were seeded in flat-bottom 96-well plates (5000 cells/well) and incubated in said medium for 24 h or 48 h, respectively, with the compounds present in concentrations ranging from 0.03 μM to 200 μM. Mitochondria content was analyzed using the Mito-ID® Green Detection Kit for fluorescence microscopy (Enzo Life Sciences; Cat. No. ENZ-51055-K500). Fluorometric analysis was done using a Spectramax plate reader (Molecular Devices) and following the manufacturer's protocol. Cytotoxicity was determined in parallel by fluorometric readout using the Resazurin Based In Vitro Toxicology Assay Kit (Sigma Aldrich, Cat. No. TOX-8), and following the manufacturer's protocol.

[4] = Example 1, concentration that gave 3-times the basal response of the enzyme

Compound: CCOC(=O)c1c(O)cccc1/C=C/c1ccc(OCC)cc1 [(I-1)]
- Fold increase in sirtl activity versus control (human sirtuin-1 (Sirt1)): 23.9
- EC300 (human sirtuin-1 (Sirt1); [4]): 2.0 µM
- EC300 (human sirtuin-1 (Sirt1); Example 2, Table 6, Sirt1): 12.9 µM
- EC300 (Sirt2): 4.9 µM
- EC300 (Sirt3): >30* μM
- AMPK phosphorylation ([1]; NHEK, 30 μM): significantly enhanced
- cytotoxicity against NHEK [2]: no cytotoxicity
- cytotoxicity / cell viability in NHDF [3]: no cytotoxicity or loss of cell viability

Compound: O=C(O)c1c(O)cccc1/C=C/c1ccc(O)cc1 [(I-2)]
- Fold increase in sirtl activity versus control (human sirtuin-1 (Sirt1)): 4.8

Compound: COC(=O)c1c(/C=C/c2ccc(OC)cc2)cccc1OC [(I-3)]
- Fold increase in sirtl activity versus control (human sirtuin-1 (Sirt1)): 1.1

Compound: COc1cc(/C=C/c2cccc(O)c2C(=O)O)cc(OC)c1O [(I-4)]
- Fold increase in sirtl activity versus control (human sirtuin-1 (Sirt1)): 2.0

Compound: O=C(O)c1c(O)cccc1/C=C/c1ccc(OC2OC(CO)C(O)C(O)C2O)cc1 (centres unmarked) [(I-5)]
- Fold increase in sirtl activity versus control (human sirtuin-1 (Sirt1)): 2.7

Compound: NC(=O)c1ncn([C@@H]2O[C@H](CO)[C@@H](O)[C@H]2O)c1N [AICAR, 5-Amino-1-βD-ribofuranosyl-imidazole-4-carboxamide]
- AMPK phosphorylation [% Control] ([1]; Experiment 1, Membrane 1): 482 % Control
- Ratio P-AMPK/GAPDH ([1]; Experiment 1, Membrane 1): 2.05
- P-AMPK ([1]; Experiment 1, Membrane 1): 1060 AU/mm^2
- AMPK phosphorylation [% Control] ([1]; Experiment 2): 506 % Control
- Ratio P-AMPK/GAPDH ([1]; Experiment 2): 0.572
- P-AMPK ([1]; Experiment 2): 1377449 AU/mm^2

Compound: Oc1ccc(/C=C/c2cc(O)cc(O)c2)cc1 [trans-resveratrol]
- EC300 (human sirtuin-1 (Sirt1); [4]): > 30 µM
- EC300 (human sirtuin-1 (Sirt1); Example 2, Table 6, Sirt1): >30 µM
- EC300 (Sirt2): >30 µM
- viability ([2]; 100 μM): 2%
- viability ([2]; 300 μM): 43%
